# Measured values as given in US12187742B2 (XRAD Therapeutics, Inc., priority 2018, dated 2025).
# Where a name gives a salt, the structure may show the parent alone.
# Target: ATM (Homo sapiens (Human), UniProt Q13315)
# Assay: ATM in Cell Western Assay (pKAP1 in etoposide-treated MCF-7 cells)
# Type: cell-based
# Conditions: pKAP1 in etoposide-treated MCF-7 cells
# In short: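 After paraformaldehyde fixation and Triton X-100 permeabilization, immunostained plates were read by infrared scanning (ODYSSEY CLx). Compound was given as 10 doses, 3-fold dilutions from a 1 μM final top concentration.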
# ATM, sequence (Q13315 whole entry): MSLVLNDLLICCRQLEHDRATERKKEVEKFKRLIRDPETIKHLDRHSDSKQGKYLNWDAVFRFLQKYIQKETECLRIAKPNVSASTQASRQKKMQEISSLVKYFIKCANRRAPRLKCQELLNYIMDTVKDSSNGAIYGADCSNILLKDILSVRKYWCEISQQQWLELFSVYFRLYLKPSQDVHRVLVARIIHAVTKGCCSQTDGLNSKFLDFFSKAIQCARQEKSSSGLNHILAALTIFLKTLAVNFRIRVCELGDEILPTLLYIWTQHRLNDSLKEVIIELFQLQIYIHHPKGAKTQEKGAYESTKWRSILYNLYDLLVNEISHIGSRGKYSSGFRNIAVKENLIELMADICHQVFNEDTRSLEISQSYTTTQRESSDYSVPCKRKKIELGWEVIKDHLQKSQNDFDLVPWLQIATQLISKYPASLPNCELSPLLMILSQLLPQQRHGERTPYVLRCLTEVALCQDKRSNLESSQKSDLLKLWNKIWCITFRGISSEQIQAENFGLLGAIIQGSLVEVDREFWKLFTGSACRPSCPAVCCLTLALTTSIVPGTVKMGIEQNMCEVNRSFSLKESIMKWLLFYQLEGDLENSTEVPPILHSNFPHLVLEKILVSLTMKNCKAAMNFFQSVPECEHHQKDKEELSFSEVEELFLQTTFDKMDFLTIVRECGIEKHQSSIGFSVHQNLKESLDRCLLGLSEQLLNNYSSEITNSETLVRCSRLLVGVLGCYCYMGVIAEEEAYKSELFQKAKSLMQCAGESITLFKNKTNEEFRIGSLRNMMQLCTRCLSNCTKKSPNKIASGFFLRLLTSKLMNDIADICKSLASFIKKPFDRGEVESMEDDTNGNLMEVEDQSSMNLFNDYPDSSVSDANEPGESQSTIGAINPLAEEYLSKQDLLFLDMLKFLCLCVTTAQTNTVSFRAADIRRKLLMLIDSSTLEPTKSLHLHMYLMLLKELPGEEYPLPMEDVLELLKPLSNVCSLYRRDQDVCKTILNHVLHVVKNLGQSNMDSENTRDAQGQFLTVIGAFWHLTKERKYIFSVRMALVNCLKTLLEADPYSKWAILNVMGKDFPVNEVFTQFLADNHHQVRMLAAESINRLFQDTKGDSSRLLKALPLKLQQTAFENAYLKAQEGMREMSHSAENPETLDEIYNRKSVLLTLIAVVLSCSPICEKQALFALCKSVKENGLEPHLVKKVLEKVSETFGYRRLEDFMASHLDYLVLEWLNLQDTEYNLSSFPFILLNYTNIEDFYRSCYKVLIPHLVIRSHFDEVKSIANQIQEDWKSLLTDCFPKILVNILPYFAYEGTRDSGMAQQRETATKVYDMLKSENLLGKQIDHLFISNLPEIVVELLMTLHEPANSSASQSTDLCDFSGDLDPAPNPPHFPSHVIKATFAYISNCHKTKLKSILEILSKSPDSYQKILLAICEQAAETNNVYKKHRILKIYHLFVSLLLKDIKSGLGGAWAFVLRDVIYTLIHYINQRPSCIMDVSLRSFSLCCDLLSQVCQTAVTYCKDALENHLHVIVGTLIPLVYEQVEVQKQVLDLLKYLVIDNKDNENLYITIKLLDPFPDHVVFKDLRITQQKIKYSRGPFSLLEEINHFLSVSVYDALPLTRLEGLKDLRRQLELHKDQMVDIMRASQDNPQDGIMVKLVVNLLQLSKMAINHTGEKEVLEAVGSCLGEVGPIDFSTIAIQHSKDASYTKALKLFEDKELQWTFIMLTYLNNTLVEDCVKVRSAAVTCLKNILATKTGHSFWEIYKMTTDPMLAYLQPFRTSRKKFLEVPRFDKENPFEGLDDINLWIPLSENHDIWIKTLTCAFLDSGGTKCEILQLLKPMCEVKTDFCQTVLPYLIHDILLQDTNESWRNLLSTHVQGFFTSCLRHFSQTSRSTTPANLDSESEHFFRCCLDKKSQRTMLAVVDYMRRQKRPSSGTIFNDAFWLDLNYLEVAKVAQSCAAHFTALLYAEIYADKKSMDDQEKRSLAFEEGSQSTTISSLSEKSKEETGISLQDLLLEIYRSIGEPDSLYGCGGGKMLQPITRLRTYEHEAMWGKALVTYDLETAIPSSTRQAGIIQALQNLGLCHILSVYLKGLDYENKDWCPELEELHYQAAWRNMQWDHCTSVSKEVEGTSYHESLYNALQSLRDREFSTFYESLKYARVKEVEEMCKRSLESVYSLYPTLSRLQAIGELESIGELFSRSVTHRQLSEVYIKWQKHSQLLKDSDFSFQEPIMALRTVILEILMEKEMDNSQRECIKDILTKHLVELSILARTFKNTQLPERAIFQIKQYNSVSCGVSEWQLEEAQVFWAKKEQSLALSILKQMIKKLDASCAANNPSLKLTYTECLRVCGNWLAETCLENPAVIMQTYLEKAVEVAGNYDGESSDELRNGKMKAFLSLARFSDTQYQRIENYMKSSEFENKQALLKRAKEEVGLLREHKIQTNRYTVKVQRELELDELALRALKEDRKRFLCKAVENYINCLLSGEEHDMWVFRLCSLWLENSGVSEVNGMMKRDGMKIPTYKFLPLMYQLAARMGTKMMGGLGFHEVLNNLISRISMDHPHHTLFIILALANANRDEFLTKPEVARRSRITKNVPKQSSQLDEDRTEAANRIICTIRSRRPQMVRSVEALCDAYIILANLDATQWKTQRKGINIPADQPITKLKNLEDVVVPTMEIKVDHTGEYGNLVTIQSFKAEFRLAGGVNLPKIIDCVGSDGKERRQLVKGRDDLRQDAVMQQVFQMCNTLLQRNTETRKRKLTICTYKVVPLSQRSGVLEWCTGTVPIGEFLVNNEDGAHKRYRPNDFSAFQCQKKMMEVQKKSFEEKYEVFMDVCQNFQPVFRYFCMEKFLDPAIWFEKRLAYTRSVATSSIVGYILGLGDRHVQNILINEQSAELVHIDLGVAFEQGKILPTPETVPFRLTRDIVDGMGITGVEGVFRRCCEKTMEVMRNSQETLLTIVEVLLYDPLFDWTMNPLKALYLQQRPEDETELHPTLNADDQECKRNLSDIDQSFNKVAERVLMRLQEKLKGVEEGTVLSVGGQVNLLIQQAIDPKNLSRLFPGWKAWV
row,IC50 [nM],SMILES
1,> 100,"CC(C)NCCOc1ncc(-c2cc3c4c(cnc3cc2F)N(C)C(=O)C42CN(C(=O)c3ccccc3)C2)cc1NS(C)(=O)=O [Example 516, N-(5-(1-Benzoyl-7′-fluoro-3′-methyl-2′-oxo-2′,3′-dihydrospiro[azetidine-3,1′-pyrrolo[2,3-c]quinolin]-8′-yl)-2-(2-(isopropylamino)ethoxy)pyridin-3-yl)methanesulfonamide]"
2,> 100,"CC(C)NCCOc1ncc(-c2cc3c4c(cnc3cc2F)N(C)C(=O)C42CN(C(N)=O)C2)cc1NS(C)(=O)=O [Example 517, 7′-Fluoro-8′-(6-(2-(isopropylamino)ethoxy)-5-(methylsulfonamido)pyridin-3-yl)-3′-methyl-2′-oxo-2′,3′-dihydrospiro[azetidine-3,1′-pyrrolo[2,3-c]quinoline]-1-carboxamide]"
3,> 100,"CC(C)NCCOc1ncc(-c2cc3c4c(cnc3cc2F)N(C)C(=O)C42CN(C(=O)N(C)C)C2)cc1NS(C)(=O)=O [Example 518, 7′-Fluoro-8′-(6-(2-(isopropylamino)ethoxy)-5-(methylsulfonamido)pyridin-3-yl)-N,N,3′-trimethyl-2′-oxo-2′,3′-dihydrospiro[azetidine-3,1′-pyrrolo[2,3-c]quinoline]-1-carboxamide]"
4,1 to 100,Cc1cc(S(=O)(=O)Nc2cc(-c3cc4c5c(cnc4cc3F)N(C)C(=O)C53CN(c4ccccc4)C3)cnc2OCCNC(C)C)sn1 [Example 521]
5,1 to 100,"CC(C)NCCOc1ncc(-c2cc3c4c(cnc3cc2F)N(C)C(=O)C42CN(c3ccc(C(C)(C)C)cc3)C2)cc1NS(C)(=O)=O [Example 531, N-(5-(1-(4-(ter-Butyl)phenyl)-7′-fluoro-3′-methyl-2′-oxo-2′,3′-dihydrospiro[azetidine-3,1′-pyrrolo[2,3-c]quinolin]-8′-yl)-2-(2-(isopropylamino)ethoxy)pyridin-3-yl)methanesulfonamide]"
6,1 to 100,"COc1cccc(N2CC3(C2)C(=O)N(C)c2cnc4cc(F)c(-c5cnc(OCCNC(C)C)c(NS(C)(=O)=O)c5)cc4c23)c1 [Example 534, N-(5-(7′-Fluoro-1-(3-methoxyphenyl)-3′-methyl-2′-oxo-2′,3′-dihydrospiro [azetidine-3,1′-pyrrolo[2,3-c]quinolin]-8′-yl)-2-(2-(isopropylamino)ethoxy)pyridin-3-yl)methanesulfonamide]"
7,1 to 100,"CC(C)NCCOc1ncc(-c2cc3c4c(cnc3cc2F)N(C)C(=O)C42CN(c3cccc(C(F)(F)F)c3)C2)cc1NS(C)(=O)=O [Example 537, N-(5-(7′-Fluoro-3′-methyl-2′-oxo-1-(3-(trifluoromethyl)phenyl)-2′,3′-dihydrospiro[azetidine-3,1′-pyrrolo[2,3-c]quinolin]-8′-yl)-2-(2-(isopropylamino)ethoxy)pyridin-3-yl)methanesulfonamide]"
8,1 to 100,"CC(C)NCCOc1ncc(-c2cc3c4c(cnc3cc2F)N(C)C(=O)C42CN(c3cccc(OC(F)(F)F)c3)C2)cc1NS(C)(=O)=O [Example 542, N-(5-(7′-Fluoro-3′-methyl-2′-oxo-1-(3-(trifluoromethoxy)phenyl)-2′,3′-dihydrospiro[azetidine-3,1′-pyrrolo[2,3-c]quinolin]-8′-yl)-2-(2-(isopropylamino)ethoxy)pyridin-3-yl)methanesulfonamide]"
9,1 to 100,"COc1ccc(N2CC3(C2)C(=O)N(C)c2cnc4cc(F)c(-c5cnc(OCCNC(C)C)c(NS(C)(=O)=O)c5)cc4c23)cc1OC [Example 546, N-(5-(1-(3,4-Dimethoxyphenyl)-7′-fluoro-3′-methyl-2′-oxo-2′,3′-dihydrospiro[azetidine-3,1′-pyrrolo[2,3-c]quinolin]-8′-yl)-2-(2-(isopropylamino)ethoxy)pyridin-3-yl)methanesulfonamide]"
10,> 100,"CC(C)NCCOc1ncc(-c2cc3c4c(cnc3cc2F)N(C)C(=O)C42CN(c3ccncc3)C2)cc1NS(C)(=O)=O [Example 547, N-(5-(7′-Fluoro-3′-methyl-2′-oxo-1-(pyridin-4-yl)-2′,3′-dihydrospiro [azetidine-3,1′-pyrrolo[2,3-c]quinolin]-8′-yl)-2-(2-(isopropylamino)ethoxy)pyridin-3-yl)methanesulfonamide]"
11,1 to 100,"CC(C)NCCOc1ncc(-c2cc3c4c(cnc3cc2F)N(C)C(=O)C42CN(c3cccnc3)C2)cc1NS(C)(=O)=O [Example 548, N-(5-(7′-Fluoro-3′-methyl-2′-oxo-1-(pyridin-3-yl)-2′,3′-dihydrospiro [azetidine-3,1′-pyrrolo[2,3-c]quinolin]-8′-yl)-2-(2-(isopropylamino)ethoxy)pyridin-3-yl)methanesulfonamide hydrochloride]"
12,> 100,"CC(C)NCCOc1ncc(-c2cc3c4c(cnc3cc2F)N(C)C(=O)C42CN(c3cncnc3)C2)cc1NS(C)(=O)=O [Example 549, N-(5-(7′-Fluoro-3′-methyl-2′-oxo-1-(pyrimidin-5-yl)-2′,3′-dihydrospiro[azetidine-3,1′-pyrrolo[2,3-c]quinolin]-8′-yl)-2-(2-(isopropylamino)ethoxy)pyridin-3-yl)methanesulfonamide]"
13,> 100,"CC(C)NCCOc1ncc(-c2cc3c4c(cnc3cc2F)N(C)C(=O)C42CN(c3nn[nH]n3)C2)cc1NS(C)(=O)=O [Example 550, N-(5-(7′-Fluoro-3′-methyl-2′-oxo-1-(2H-tetrazol-5-yl)-2′,3′-dihydrospiro [azetidine-3,1′-pyrrolo[2,3-c]quinolin]-8′-yl)-2-(2-(isopropylamino)ethoxy)pyridin-3-yl)methanesulfonamide]"
14,> 100,"CC(C)NCCOc1ncc(-c2cc3c4c(cnc3cc2F)N(C)C(=O)C42CN(c3ncccn3)C2)cc1NS(C)(=O)=O [Example 551, N-(5-(7′-Fluoro-3′-methyl-2′-oxo-1-(pyrimidin-2-yl)-2′,3′-dihydrospiro[azetidine-3,1′-pyrrolo[2,3-c]quinolin]-8′-y))-2-(2-(isopropylamino)ethoxy)pyridin-3-yl)methanesulfonamide hydrochloride]"
15,> 100,"CC(C)NCCOc1ncc(-c2cc3c4c(cnc3cc2F)N(C)C(=O)C42CN(c3nnn(C)n3)C2)cc1NS(C)(=O)=O [Example 552, N-(5-(7′-Fluoro-3′-methyl-1-(2-methyl-2H-tetrazol-5-yl)-2′-oxo-2′,3′-dihydrospiro[azetidine-3,1′-pyrrolo[2,3-c]quinolin]-8′-yl)-2-(2-(isopropylamino)ethoxy)pyridin-3-yl)methanesulfonamide]"
16,> 100,"CC(C)NCCOc1ncc(-c2cc3c4c(cnc3cc2F)N(C)C(=O)C42CN(c3nnnn3C)C2)cc1NS(C)(=O)=O [Example 553, N-(5-(7′-Fluoro-3′-methyl-1-(1-methyl-1H-tetrazol-5-yl)-2′-oxo-2′,3′-dihydrospiro[azetidine-3,1′-pyrrolo[2,3-c]quinolin]-8′-yl)-2-(2-(isopropylamino)ethoxy)pyridin-3-yl)methanesulfonamide]"
17,1 to 100,"CC(C)NCCOc1ncc(-c2cc3c4c(cnc3cc2F)N(C)C(=O)C42COC2)cc1NS(C)(=O)=O [Example 555, N-(5-(7′-Fluoro-3′-methyl-2′-oxo-2′,3′-dihydrospiro[oxetane-3,1′-pyrrolo[2,3-c]quinolin]-8′-yl)-2-(2-(isopropylamino)ethoxy)pyridin-3-yl)methanesulfonamide hydrochloride]"
